A word on the solubility: it is how much of the substance goes into solution per volume. A high value points to much dissolved substance.

Converted amounts (≈) assume the structure as drawn.

This data set can be described thus: Aqueous equilibrated solubility. Format: physicochemical. The following applies: thermodynamic from solid; aqueous phosphate buffer 50 mM pH 7.4, shaken overnight at RT; pH 7.5 = pH of the solubilized fraction. On the procedure:
The studied compound was accurately weighted with a target concentration of 2 mg/mL in an aqueous phosphate buffer (50 mM at pH=7.4). The solution was shaken overnight (rock'n roll shaker) at RT and protected from light (about 24 hrs). The solution was filtered in plate filter device (microplate Millipore “Solvinert” with integrated PTFE filter; 0.45 μm) and the filtrate was dosed by LC/UV method.
The studied compound was accurately weighted with a target concentration of 0.1 mg/mL in DMSO. The solution was sonicated at RT and protected from light. The reference solution was dosed by a LC/UV method and pH of the solubilized fraction was measured.
On to `O=C(Cc1ccc([S@@+]([O-])CC2CC2)cc1)Nc1ccc([C@@](O)(C(F)F)C(F)(F)F)cc1` (single isomer, unassigned) [Example 10], for which the solubility at 24 h turned out to be 94.8 µg/mL (≈ 205 µM).

Take `O=C(Cc1ccc([S@@+]([O-])CC2CC2)cc1)Nc1ccc([C@](O)(C(F)F)C(F)(F)F)cc1` (single isomer, unassigned) [Example 11]: the solubility at 24 h was 92.5 µg/mL (≈ 200 µM).

`O=C(Cc1ccc([S@+]([O-])CC2CC2)cc1)Nc1ccc([C@@](O)(C(F)F)C(F)(F)F)cc1` (single isomer, unassigned) [Example 12] came in with a solubility at 24 h of 94.4 µg/mL (≈ 205 µM).

In turn, `O=C(Cc1ccc([S@+]([O-])CC2CC2)cc1)Nc1ccc([C@](O)(C(F)F)C(F)(F)F)cc1` (single isomer, unassigned) [Example 13] displayed a solubility at 24 h of 93 µg/mL (≈ 202 µM).

On to `O=C(Cc1ccc([S+]([O-])CC2CC2)cc1)Nc1ccc(C(O)(C(F)F)C(F)(F)F)cc1` (centres unmarked) [Example 9, 2-[4-(cyclopropylmethylsulfinyl)phenyl]-N-[4-[1-(difluoromethyl)-2,2,2-trifluoro-1-hydroxy-ethyl]phenyl]acetamide], for which the solubility at 24 h was 99.4 µg/mL (≈ 215 µM).
